Patent US4342780A, “Method of depleting endogenous monoamines” (Merrell-Toraude et Cie, priority 1981, dated 1982)

Columns and labels:
AADC = assay: Ex vivo AADC activity in organs of mice after repeated i.p. doses (Table II); parameters: species or system mice (Swiss Albino); details: three days, 12 h after 6th dose, vs control
Protocol: (§1) The test animals (e.g. mice or rats) are given the test compound in a suitable vehicle, either orally or by injection, each day over the period of time desired. The animals are kept on a constant time cycle, and body weights are measured daily. The animals are sacrificed by decapitation 12 to 24 hours after receiving the last dose of the test compound. Control animals receive the vehicle alone.
(§2) Immediately after death, the organs (brain, heart, and kidney) are removed and homogenized either in 50 ml phosphate buffer pH 6.8 for AADC determination or in ice-cold 0.4 M HClO4 containing 0.05% (w/v) EDTA and 0.1% (w/v) sodium bisulfite for catecholamine determination. AADC activity is determined by the ^14 CO2 trapping method of J. Christenson, supra (see Example 14) using DL-[1-^14 C]-dopa as the substrate. Catecholamines are determined by centrifuging the homogenate, adding the supernatant to alumina buffered to pH 8.0-8.4 to adsorb the catecholamines, re-extracting the catecholamines from the alumina with 0.2 M HClO4 and determining the catecholamines in the extracts using known procedures, such as by reversed-phase ion-pair HPLC with electrochemical detection.
(§3) Table II, shown below, sets forth the results obtained by testing particular compounds of Formula I in the above-described procedure in mice (Swiss Albino) after i.p. administration of the compound twice daily for three days: […]

[1] = tested on: catecholamine levels (dopamine, noradrenaline); assay: Effect of dopamine injection on catecholamine levels in heart and brain of mice treated with test compound (Table VI); type: in vivo, Male albino mice; details: ± SEM, n = 5; for Heart Dopamine: control 20 ± 2; for Brain Noradrenaline: control 516 ± 24; for Heart Noradrenaline: control 760 ± 87; for Brain Dopamine: control 1183 ± 28
Protocol: Saline solution is used as a control. The mice are sacrificed and the catecholamines, dopamine and noradrenaline, and serotonin (5-hydroxytryptamine) are determined by reverse-phase ion-pair high pressure liquid chromatography using electrochemical detection. […] Twelve hours after the second dose, one group of animals received an i.p. injection of 50 mg/kg of dopamine-HCl (Sigma, Chem. Co), the other group received saline instead. Three hours after the dopamine injection, the animals were killed and catecholamines were measured in heart and brain as described in Example 18.

[2] = tested on: dopamine, noradrenaline and serotonin content; assay: Effect of repeated administration on catecholamine and serotonin content of the mouse brain (Table V); type: in vivo, Male albino mice; details: 5 × 100 mg/kg i.p. every 12 hours
Protocol: The following example illustrates the effect of repeated administration of 2-amino-2-fluoromethyl-3(3,4-dihydroxyphenyl)propionic acid in the brain.
Male albino mice (25-30 g) from Charles River, France and dosed i.p. with 100 mg/kg of 2-amino-2-fluoromethyl-3-(3,4-dihydroxyphenyl)propionic acid every 12 hours for 5 doses. Saline solution is used as a control. The mice are sacrificed and the catecholamines, dopamine and noradrenaline, and serotonin (5-hydroxytryptamine) are determined by reverse-phase ion-pair high pressure liquid chromatography using electrochemical detection.

[3] = tested on: dopamine, noradrenalin and 5-hydroxytryptamine content; assay: Effect on catecholamines and 5-HT in brain regions of the rat 24 hours post-dose (Table IV); type: in vivo, Male Sprague-Dawley rats; details: 100 mg/kg i.p., ± S.E.M.
Protocol: The following example illustrates the effect of 2-amino-2-fluoromethyl-3-(3,4-dihydroxyphenyl)propionic acid on catecholamines and 5-HT in the brain.
Male Sprague-Dawley rats (200-300 g) from Charles River, France are housed in groups having free access to food and water. The animals are maintained on a 12 hour light-dark cycle at an ambient temperature of 23° C. The compound 2-amino-2-fluoromethyl-3-(3,4-dihydroxyphenyl)propionic acid is dissolved in 0.9% saline solution and administered as a single dose of 100 mg/kg, i.p. The animals are sacrificed 24 hours later and the brain is dissected on a chilled glass plate into six regions: the striatum, hypothalmus, olfactory tubercles, frontal cortex, cerebellum and brain stem. The tissues are weighed and homogenized in 600 microliters of ice-cold 0.4 Normal HClO4 reagent. The homogenate is centrifuged and dopamine, noradrenalin and 5-hydroxytryptamine are determined by reversed-phase ion-pair high pressure liquid chromatography using electrochemical detection.

[4] = tested on: catecholamine content (norepinephrine, dopamine); assay: Catecholamine content in organs of mice after repeated i.p. doses (Table II); type: in vivo, mice (Swiss Albino); details: three days, 12 h after 6th dose, vs control
Protocol: as §1, §2, §3

[5] = 2 × 100 mg/kg test compound + dopamine 50 mg/kg i.p., * marked
[6] = 2 × 100 mg/kg test compound + saline, * marked

NC(CF)(Cc1ccc(O)c(O)c1)C(=O)O (stereo not drawn) [3,4-diOH-phenyl, 2-Amino-2-fluoromethyl-3-(3,4-dihydroxyphenyl)propionic acid]
% CHANGE AADC Brain (AADC; 10 mg/kg i.p. twice daily): -86% | % CHANGE AADC Kidney (AADC; 10 mg/kg i.p. twice daily): -95% | % CHANGE AADC Brain (AADC; 100 mg/kg i.p. twice daily): -99% | % CHANGE AADC Kidney (AADC; 100 mg/kg i.p. twice daily): -99% | Heart Dopamine [1, 5]: 429 ± 39 ng/g | Brain Noradrenaline [1, 5]: 42 ± 4 ng/g | Heart Noradrenaline ([1]; 2 × 100 mg/kg test compound + dopamine 50 mg/kg i.p.): 882 ± 47 ng/g | Brain Dopamine [1, 5]: 92 ± 8 ng/g | Heart Dopamine ([1]; 2 × 100 mg/kg test compound + saline): 98 ± 62 ng/g | Brain Noradrenaline [1, 6]: 44 ± 6 ng/g | Heart Noradrenaline [1, 6]: 173 ± 24 ng/g | Brain Dopamine [1, 6]: 47 ± 5 ng/g | % Reduction Dopamine (brain) ([2]; vs saline): -97% | % Reduction Noradrenaline (brain) ([2]; vs saline): -94% | % Reduction Serotonin (brain) ([2]; vs saline): -83% | Noradrenaline content of the brain ([2]; ± S.E.M., saline 310 ± 15): 19.6 ± 3 ng/g | Dopamine content of the brain ([2]; ± S.E.M., saline 722 ± 47): 18.6 ± 2 ng/g | Serotonin content of the brain ([2]; ± S.E.M., saline 1685 ± 29): 282 ± 25 ng/g | 5-Hydroxytriptamine, Cerebellum ([3]; control 30 ± 3, p < 0.01): 11 ± 3 ng/g | Dopamine, Brain Stem ([3]; control 37 ± 9): 13 ± 4 ng/g | Noradrenaline, Striatum ([3]; control 47 ± 13): 46 ± 24 ng/g | Noradrenaline, Cerebellum ([3]; control 137 ± 1, p < 0.001): 17 ± 3 ng/g | Noradrenaline, Olfactory Tubercles ([3]; control 360 ± 32, p < 0.01): 126 ± 29 ng/g | 5-Hydroxytriptamine, Frontal Cortex ([3]; control 365 ± 23, p < 0.001): 19 ± 7 ng/g | Dopamine, Hypothalamus ([3]; control 399 ± 23): 280 ± 69 ng/g | Noradrenaline, Brain Stem ([3]; control 439 ± 47, p < 0.01): 143 ± 9 ng/g | 5-Hydroxytriptamine, Striatum ([3]; control 591 ± 47, p < 0.001): 50 ± 16 ng/g | 5-Hydroxytriptamine, Brain Stem ([3]; control 620 ± 35, p < 0.01): 136 ± 50 ng/g | 5-Hydroxytriptamine, Olfactory Tubercles ([3]; control 699 ± 72, p < 0.01): 87 ± 31 ng/g | 5-Hydroxytriptamine, Hypothalamus ([3]; control 1162 ± 306, p < 0.05): 199 ± 44 ng/g | Noradrenaline, Hypothalamus ([3]; control 1419 ± 107, p < 0.01): 631 ± 37 ng/g | Dopamine, Olfactory Tubercles ([3]; control 1954 ± 62, p < 0.001): 403 ± 44 ng/g | Dopamine, Striatum ([3]; control 7342 ± 357, p < 0.001): 1466 ± 156 ng/g | % CHANGE NOREPINEPHRINE Brain ([4]; 10 mg/kg i.p. twice daily, * not significant): -55% | % CHANGE NOREPINEPHRINE Heart ([4]; 10 mg/kg i.p. twice daily, * not significant (-25*, -7*)): -39% | % CHANGE DOPAMINE Brain ([4]; 10 mg/kg i.p. twice daily, * not significant (-25*, -9*)): 0% | % CHANGE NOREPINEPHRINE Brain ([4]; 100 mg/kg i.p. twice daily): -80% | % CHANGE NOREPINEPHRINE Heart ([4]; 100 mg/kg i.p. twice daily): -80% | % CHANGE DOPAMINE Brain ([4]; 100 mg/kg i.p. twice daily, * not significant (-35*)): -80%
